Laboratory results as given in ChEMBL document CHEMBL4261496, “Targeting quinolone- and aminocoumarin-resistant bacteria with new gyramide analogs that inhibit DNA gyrase” (Medchemcomm, 2017).
Values after ≈ are worked out from the molar mass of the structure shown. Active and inactive are the calls of the source. No cut-off for these calls is given here.

Experiments:
[1] = system: Escherichia coli; assay: Antibacterial activity against Escherichia coli JW5503 after 16 to 18 hrs by broth microdilution method; assay type: functional
[2] = system: Escherichia coli; assay: Antibacterial activity against Escherichia coli JW5503 transfected with empty vector in absence of IPTG induction after 16 hrs by broth microdilution method; assay type: functional; details: JW5503, 16 h
[3] = system: Escherichia coli; assay: Antibacterial activity against Escherichia coli JW5503 overexpressing gyrA/gyrB in presence of IPTG induction after 16 hrs by broth microdilution method; assay type: functional; details: JW5503, 16 h
[4] = system: Escherichia coli; assay: Antibacterial activity against Escherichia coli HB101 after 16 to 18 hrs by broth microdilution method; assay type: functional
[5] = system: Escherichia coli; assay: Antibacterial activity against novobiocin-resistant Escherichia coli LE316 harboring GyrB Arg136Val mutant after 16 to 18 hrs in presence of PAbetaN by broth microdilution method; assay type: functional
[6] = system: Escherichia coli; assay: Antibacterial activity against Escherichia coli JW5503 overexpressing gyrB in presence of IPTG induction after 16 hrs by broth microdilution method; assay type: functional; details: JW5503, 16 h
[7] = system: Escherichia coli; assay: Antibacterial activity against novobiocin-resistant Escherichia coli CC5 harboring GyrB Arg136His mutant after 16 to 18 hrs in presence of PAbetaN by broth microdilution method; assay type: functional
[8] = system: Escherichia coli; assay: Antibacterial activity against Escherichia coli JW5503 overexpressing gyrB at 51 ug/ml in presence of IPTG induction after 16 hrs by broth microdilution method; assay type: functional, organism-based
[9] = system: Escherichia coli; assay: Antibacterial activity against Escherichia coli HB101 after 16 to 18 hrs in presence of PAbetaN by broth microdilution method; assay type: functional
[10] = system: Escherichia coli; assay: Antibacterial activity against Escherichia coli JW5503 transfected with empty vector in presence of IPTG induction after 16 hrs by broth microdilution method; assay type: functional; details: JW5503, 16 h
[11] = system: Escherichia coli; assay: Antibacterial activity against novobiocin-resistant Escherichia coli CC7 harboring GyrB Arg136Ser mutant after 16 to 18 hrs in presence of PAbetaN by broth microdilution method; assay type: functional

CO[C@@H]1[C@@H](OC(N)=O)[C@@H](O)[C@H](Oc2ccc3c(O)c(NC(=O)c4ccc(O)c(CC=C(C)C)c4)c(=O)oc3c2C)OC1(C)C [NOVOBIOCIN]
MIC [1]: 0.8 µg/mL (≈ 1.31 µM)
MIC [2]: 0.4 µg/mL (≈ 0.653 µM)
MIC [3]: 3.2 µg/mL
MIC [4]: > 100 µg/mL
MIC [5]: 12.8 µg/mL
MIC [6]: 6.3 µg/mL
MIC [7]: 102 µg/mL
Activity [8]: inactive
MIC [9]: 3.2 µg/mL
MIC [10]: 0.4 µg/mL
MIC [11]: 6.4 µg/mL
